Assay results reported in patent US20190125772A1, “IMPROVED DRUG COMBINATIONS FOR DRUG-RESISTANT AND DRUG-SENSITIVE MULTIPLE MYELOMA” (priority 2015, published 2019).

Columns and labels:
[1] = system: RPMI 8226 (Bortezomib-sensitive) versus THLE-2 healthy control cells; assay: FSC in vitro cellular assay, output = cell viability of THLE-2 minus cell viability of RPMI 8226, with linear regression and response surface maps; assay type: cell-based; details: for drug candidate assessment from two-drug interaction terms: first iteration, interaction coefficients with desirable candidates
Description: This is expressed as a therapeutic window (% Output) that is the difference in percentage (%) viability between treated multiple myeloma and THLE-2 cells.

[2] = system: Bortezomib-sensitive RPMI 8226 multiple myeloma cells; assay: Inhibitory concentrations (ICx, inhibition of cell growth) of the drugs in FSC-derived optimal combinations, Bortezomib-sensitive multiple myeloma; assay type: cell-based; details: concentration of the single drug as used in optimal combinations
Description: FIG. 8: Table showing the design of three iterations. IC20 represents 20% inhibitory concentration, which is the dosage of drug for 20% inhibition of cell growth. The first and second iterations are drug screening experiments to remove unfavorable drug candidates.
FIG. 14: Multi-drug optimization experimental assessment of prescribed combinations and output. […] The calculated y from the equation (FIG. 13) is the output as shown here.
In each iteration (experiment run), a list of drug combinations used is based on an experimental design methodology that aims to reduce the number of experiments to obtain sufficient information to build a mathematical equation.
After the list of drug combinations is determined, the drug combinations are applied to an in vitro cellular assay. A healthy control cell (THLE-2) is used to determine liver toxicity caused by drug treatment. Drug efficacy is determined using the B lymphocyte cancer cell (RPMI 8226). Favorable drug combinations would maximize cancer cell killing while minimizing health cell death. […] The experiments are conducted in a rapid, high-throughput manner using an automated liquid handler machine.

In the case of `CO[C@@]12[C@H](COC(N)=O)C3=C(C(=O)C(C)=C(N)C3=O)N1C[C@@H]1N[C@@H]12` [Mitomycin C], the “drug candidate assessment from two-drug interaction terms” value (from here on “drug candidate assessment”) ([1]; second attempt) was “can be eliminated”.

`O.O=P1(N(CCCl)CCCl)NCCCO1` (stereo not shown) [Cyclophoshamide monohydrate] was tested, and the “drug candidate assessment” value ([1]; first attempt) was “can be eliminated” and the “drug candidate assessment” value ([1]; second attempt) was “can be eliminated”.

`Nc1ncn([C@H]2C[C@H](O)[C@@H](CO)O2)c(=O)n1` [Decitabine, 5-aza-2′-deoxycytidine] was tested, and the “drug candidate assessment” value ([1]; first attempt) was “can be eliminated”.

With `CC(C)C[C@H](NC(=O)[C@H](CCc1ccccc1)NC(=O)CN1CCOCC1)C(=O)N[C@@H](Cc1ccccc1)C(=O)N[C@@H](CC(C)C)C(=O)[C@@]1(C)CO1` [Carfilzomib, (2S)-N-((S)-1-((S)-4-methyl-1-((R)-2-methyloxiran-2-yl)-1-oxopentan-2-ylcarbamoyl)-2-phenylethyl)-2-((S)-2-(2-morpholinoacetamido)-4-phenylbutanamido)-4-methylpentanamide] the “effect of presence or absence of the drug on the output” value ([1]; third iteration, other four drugs kept at 100%) was “does not change the output”.

`Cc1[nH]c2ccccc2c1CCNCc1ccc(/C=C/C(=O)NO)cc1` [Panobinostat, (2E)-N-hydroxy-3-[4-({[2-(2-methyl-1H-indol-3-yl)ethyl]amino}methyl)phenyl]acrylamide] showed an IC8.75 [2] of about 0.0003239 µM, an IC17.5 [2] of about 0.0005905 µM and an IC26.25 [2] of about 0.0008734 µM. For the same compound, the IC35 [2] was about 1.195 nM, the IC8.75 ([2]; listed as Panobinostal) was “IC8.75/[3.239E−4 μM]” and the IC17.5 ([2]; listed as Panobinostal) was “IC17.5/[5.905E−4 μM]”. The IC26.25 ([2]; listed as Panobinostal) was “IC26.25/[8.734E−4 μM]” and the IC35 ([2]; listed as Panobinostal) was “IC35/[1.195E−3 μM]”.
